How the values were obtained:
[1] = tested on: EVSA-T cells; assay: Cell proliferation assay (CellTiter-Glo), EVSA-T; type: cell-based; conditions: Homo sapiens, EVSA-T, 72 h, 72 h treatment, Celltiter-Glo luminescence
How it was run: (§1)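 Compounds tested over ten concentrations ([…]) for 72 h on EVSA-T cells in MEM/10% FBS and MDA-MB-231 cells in RPMI-1640/10% FBS, seeded at 10000/well. Luminescent CellTiter-Glo readout; IC50 fitted after normalisation to controls.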

[2] = tested on: MDA-MB-231 cells; assay: Cell proliferation assay (CellTiter-Glo), MDA-MB-231; type: cell-based; conditions: Homo sapiens, MDA-MB-231, 72 h, 72 h treatment, Celltiter-Glo luminescence
How it was run: as §1

Row | IC50 [2] [nM] | Structure (SMILES) | IC50 [1] [nM]
1 | 46 | C[C@@H]1CN(CC(=O)N2CC(C)(C)c3c2cc(Cc2ccc(F)cc2)c2nc(C(F)(F)F)cn32)[C@@H](CN2[C@@H](C)COC[C@@H]2C)CN1 [Compound 162, 2-((2R,5R)-2-(((3S,5S)-3,5-dimethylmorpholino)methyl)-5-methylpiperazin-1-yl)-1-(4-(4-fluorobenzyl)-8,8-dimethyl-2-(trifluoromethyl)-7,8-dihydro-6H-imidazo[1,2-a]pyrrolo[2,3-e]pyridin-6-yl)ethan-1-one] | 10
2 | 180 | CC(c1ccc(F)cc1)c1cc2c(n3ncnc13)C(C)(C)CN2C(=O)CN1C[C@@H](C)NC[C@@H]1CN1CCOC[C@H]1C (stereo partly drawn) [Compound 45, 1-(4-(1-(4-fluorophenyl)ethyl)-8,8-dimethyl-7,8-dihydro-6H-pyrrolo[2,3-e][1,2,4]triazolo[1,5-a]pyridin-6-yl)-2-((2R,5R)-5-methyl-2-(((R)-3-methylmorpholino)methyl)piperazin-1-yl)ethan-1-one] | 40
3 | 49 | C[C@@H]1CN(CC(=O)N2CC(C)(C)c3c2cc(Cc2ccc(F)cc2)c2ncnn32)[C@@H](CN2CC3CCC2CO3)CN1 (stereo partly drawn) [Compound 214, 2-((2R,5R)-2-((2-oxa-5-azabicyclo[2.2.2]octan-5-yl)methyl)-5-methylpiperazin-1-yl)-1-(4-(4-fluorobenzyl)-8,8-dimethyl-7,8-dihydro-6H-pyrrolo[2,3-e][1,2,4]triazolo[1,5-a]pyridin-6-yl)ethan-1-one] | 8
4 | 65 | C[C@@H]1CN(CC(=O)N2CC(C)(C)c3c2cc(Cc2ccc(F)cc2)c2nc(CF)cn32)[C@@H](CN2CCOC[C@H]2C)CN1 [Compound 121, 1-(4-(4-fluorobenzyl)-2-(fluoromethyl)-8,8-dimethyl-7,8-dihydro-6H-imidazo[1,2-a]pyrrolo[2,3-e]pyridin-6-yl)-2-((2R,5R)-5-methyl-2-(((R)-3-methylmorpholino)methyl)piperazin-1-yl)ethan-1-one] | 5
5 | 39 | C[C@@H]1CN(CC(=O)N2CC(C)(C)c3c2cc(Cc2ccc(F)cc2)c2nn(CC(C)(C)O)c(=O)n32)[C@@H](CN2CCOCC23CC3)CN1 [Compound 278, 6-(2-((2R,5R)-2-((7-oxa-4-azaspiro[2.5]octan-4-yl)methyl)-5-methylpiperazin-1-yl)acetyl)-4-(4-fluorobenzyl)-2-(2-hydroxy-2-methylpropyl)-8,8-dimethyl-2,6,7,8-tetrahydro-1H-pyrrolo[2,3-e][1,2,4]triazolo[4,3-a]pyridin-1-one] | 9.7
6 | 82 | COCCn1nc2c(Cc3ccc(F)cc3)cc3c(n2c1=O)C(C)(C)CN3C(=O)CN1C[C@@H](C)NC[C@@H]1CN1CCOC[C@H]1C [Compound 227, 4-(4-fluorobenzyl)-2-(2-methoxyethyl)-8,8-dimethyl-6-(2-((2R,5R)-5-methyl-2-(((R)-3-methylmorpholino)methyl)piperazin-1-yl)acetyl)-2,6,7,8-tetrahydro-1H-pyrrolo[2,3-e][1,2,4]triazolo[4,3-a]pyridin-1-one] | 2
7 | 35 | C[C@@H]1CN(CC(=O)N2CC3(CC3)c3c2cc(Cc2ccc(F)cc2)c2ncnn32)[C@@H](CN2CCOC[C@H]2C)CN1 [Compound 56, 1-(4′-(4-fluorobenzyl)spiro[cyclopropane-1,8′-pyrrolo[2,3-e][1,2,4]triazolo [1,5-a]pyridin]-6′(7′H)-yl)-2-((2R,5R)-5-methyl-2-(((R)-3-methylmorpholino)methyl)piperazin-1-yl)ethan-1-one] | 9
8 | 530 | C[C@@H]1CN(CC(=O)N2CC(C)(C)c3c2cc(Cc2ccc(F)cc2)c2nncn32)[C@@H](CN2CCOC[C@H]2C)CN1 [Example 9, 1-(4-(4-fluorobenzyl)-8,8-dimethyl-7,8-dihydro-6H-pyrrolo[2,3-e][1,2,4]triazolo[4,3-a]pyridin-6-yl)-2-((2R,5R)-5-methyl-2-(((R)-3-methylmorpholino)methyl)piperazin-1-yl)ethan-1-one] | 18

Reference: patent US20250179073A1, “TRICYCLIC HETEROCYCLE COMPOUNDS AS IAP ANTAGONISTS” (Ascentage Pharma (Suzhou) Co., Ltd., priority 2022, published 2025)
